Target: T1, YesO (Bacillus subtilis, UniProt O31518)
T1 construct: primer-encoded N-terminus MTLRIAWWG, native stop codon, no tag apparent
Assay: X-ray crystallography of the complex, […] Å
Type: binding
Conditions: crystallised with 1 mM oligo-RG-I (mostly disaccharide, trisaccharide seen in density); Tris-HCl pH 8.5, 20 C; cleft between N- and C-domains

T1 sequence (O31518 34-427): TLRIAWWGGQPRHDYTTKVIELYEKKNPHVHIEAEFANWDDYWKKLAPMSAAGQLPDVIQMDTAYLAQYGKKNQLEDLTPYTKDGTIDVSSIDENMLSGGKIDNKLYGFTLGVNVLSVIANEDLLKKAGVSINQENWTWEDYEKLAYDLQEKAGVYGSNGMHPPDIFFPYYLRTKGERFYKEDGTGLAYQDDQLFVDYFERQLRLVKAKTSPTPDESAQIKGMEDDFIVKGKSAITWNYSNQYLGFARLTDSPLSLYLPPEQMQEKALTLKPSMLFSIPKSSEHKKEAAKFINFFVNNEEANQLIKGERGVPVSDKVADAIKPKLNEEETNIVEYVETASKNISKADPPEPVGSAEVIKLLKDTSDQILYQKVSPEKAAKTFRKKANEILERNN

Compound: C[C@@H]1OC(O)[C@H](O[C@H]2OC(C(=O)O)=C[C@H](O)[C@H]2O)[C@H](O)[C@H]1O[C@@H]1O[C@H](CO)[C@H](O)[C@H](O)[C@H]1O (stereo partly shown) [ΔGalUA-Rha-Gal]
- X-ray crystallography of the complex, 1.58 Å: X-ray crystallography of YesO/oligo-RG-I indicated an interaction between YesO and the trisaccharide, ΔGalUA-Rha-Gal

Source: PMC7596534, “Bacterial inducible expression of plant cell wall-binding protein YesO through conflict between Glycine max and saprophytic Bacillus subtilis” (Scientific Reports, 2020)
